From patent publication US20250255845A1, “USE OF INTERLEUKIN (IL)-17A INHIBITOR IN PREPARATION OF MEDICAMENT FOR TREATING INFLAMMATORY DISEASE” (Xiangnan University, priority 2024, published 2025)

Tests used:
[1] = system: endothelial cells; settings: CN101947215A; cited from earlier work
[2] = system: PCNA; assay: Immunohistochemistry of PCNA in dorsal skin of IMQ-induced psoriasis mice; format: in vivo, Balb/c mice; settings: preventive and therapeutic administration groups; dose-dependent
Experimental: (§1) Balb/c mice (female, 6-8 weeks, 20+2 g), with certificate number [SCXK (Xiang) 2021-0002], were purchased from Hunan SJA Laboratory Animal (Changsha, China). All mice were housed in an specific pathogen free (SPF)-grade animal room with a 12 h light/12 h dark cycle, and experiments were started after the mice were acclimated for one week. Next, 96 mice were randomly divided into 12 groups (8 mice/group), including Control group, Control solvent (white vaseline) group, IMQ group, IMQ solvent (white vaseline) group, preventive administration of positive medicament Clo group (IMQ+Clo 55 mg), therapeutic administration of positive medicament group (IMQ+Clo (A) 55 mg), preventive administration of Tan low-dose group (IMQ+Tan 40 μg/cm^2), medium-dose group (IMQ+Tan160 μg/cm^2), and high-dose group (IMQ+Tan 640 μg/cm^2), and therapeutic administration of Tan low-dose group (IMQ+Tan (A) 40 μg/cm^2), medium-dose group (IMQ+Tan (A) 160 μg/cm^2), and high-dose group (IMQ+Tan (A) 640 μg/cm^2). After the mice were anesthetized, a 2 cm×3 cm area on the back was selected for hair removal. Modeling began 48 h after hair removal, and all modeling mice were applied with 65 mg (55 mg on the back and 5 mg on each ear) of IMQ cream every morning for 10 d. […]

[3] = system: RAW264.7 cells; assay: CCK-8 cell viability / cytotoxicity; format: cell-based, mouse; settings: 24 h
Experimental: RAW264.7 cell culture: mouse mononuclear macrophages (RAW264.7, ATCC) are cultured in a complete medium containing 10% fetal bovine serum (FBS), 1% double antibodies (penicillin and streptomycin), and 89% DMEM at 37° C. and 5% CO2. In this experiment, RAW264.7 cells from passages 3 to 8 are used for related test. RAW264.7 cells in the logarithmic growth phase were inoculated into a 96-well plate and the cell density was adjusted to 5×10^3 cells/well. After cultured for 24 h, the cells were stably adhered to the wall. The original complete medium was removed and different concentrations of Tan (5, 10, 20, 40, 80, 160, 320 μM) were added to allow treatment with or without LPS (100 ng/ml) for 24 h. Then, 10 μL of CCK-8 solution was added to each well and incubated at 37° C. for 1 h. The OD value of each sample at 450 nm was detected by a microplate reader, and the cell viability was calculated.

[4] = system: p-STAT3; assay: Immunohistochemistry of p-STAT3 in dorsal skin of IMQ-induced psoriasis mice; format: in vivo, Balb/c mice; settings: preventive and therapeutic administration groups; dose-dependent
Experimental: as §1

[5] = system: IMQ-induced psoriasis mice; assay: Dorsal skin lesions of IMQ-induced psoriasis mice; format: in vivo, Balb/c mice
Experimental: Balb/c mice (female, 6-8 weeks, 20+2 g), with certificate number [SCXK (Xiang) 2021-0002], were purchased from Hunan SJA Laboratory Animal (Changsha, China). All mice were housed in an specific pathogen free (SPF)-grade animal room with a 12 h light/12 h dark cycle, and experiments were started after the mice were acclimated for one week. Next, 96 mice were randomly divided into 12 groups (8 mice/group), including Control group, Control solvent (white vaseline) group, IMQ group, IMQ solvent (white vaseline) group, preventive administration of positive medicament Clo group (IMQ+Clo 55 mg), therapeutic administration of positive medicament group (IMQ+Clo (A) 55 mg), preventive administration of Tan low-dose group (IMQ+Tan 40 μg/cm^2), medium-dose group (IMQ+Tan160 μg/cm^2), and high-dose group (IMQ+Tan 640 μg/cm^2), and therapeutic administration of Tan low-dose group (IMQ+Tan (A) 40 μg/cm^2), medium-dose group (IMQ+Tan (A) 160 μg/cm^2), and high-dose group (IMQ+Tan (A) 640 μg/cm^2). After the mice were anesthetized, a 2 cm×3 cm area on the back was selected for hair removal. Modeling began 48 h after hair removal, and all modeling mice were applied with 65 mg (55 mg on the back and 5 mg on each ear) of IMQ cream every morning for 10 d. In the Tan preventive administration groups, the low-dose group (40 μg/cm^2), the medium-dose group (160 μg/cm^2), and the high-dose group (640 μg/cm^2) were topically administered to the back and ears every afternoon starting from the first day of modeling for 10 d. In the Tan therapeutic administration groups, the low-dose group (40 μg/cm^2), the medium-dose group (160 μg/cm^2), and the high-dose group (640 μg/cm^2) were topically administered to the back and ears every afternoon starting from the 3rd day of modeling for 10 d. The mice in the preventive positive medicament group received Clo (55 mg/mouse, 45 mg on the back, 5 mg on each ear) treatment from the first day of modeling, and the mice in the therapeutic positive medicament group received Clo (55 mg/mouse, 45 mg on the back, 5 mg on each ear) treatment from the third day of modeling.

[6] = system: IL-17A; assay: Immunohistochemistry of IL-17A in dorsal skin of IMQ-induced psoriasis mice; format: in vivo, Balb/c mice; settings: preventive and therapeutic administration groups; dose-dependent
Experimental: as §1

[7] = system: NO; assay: Griess assay of LPS-induced NO production in RAW264.7 cells; format: cell-based, mouse
Experimental: RAW264.7 cell culture: mouse mononuclear macrophages (RAW264.7, ATCC) are cultured in a complete medium containing 10% fetal bovine serum (FBS), 1% double antibodies (penicillin and streptomycin), and 89% DMEM at 37° C. and 5% CO2. In this experiment, RAW264.7 cells from passages 3 to 8 are used for related test.
LPS (100 ng/ml) is added for stimulation, with or without Tan, and the cell supernatant is collected to detect the contents of NO, IL-23, IL-17A, TNF-α, and IL-6 in the cell supernatant. The cell lysate is collected and the protein expressions (STAT3, p-STAT3 (Ser727), and p-STAT3 (Tyr705)) are detected by Western blot. Total cell RNA is extracted and real-time fluorescence quantitative polymerase chain reaction (PCR) is conducted to detect the expression levels of IL-23, IL-17A, TNF-α, and IL-6 mRNA.
RAW264.7 cells in the logarithmic growth phase were inoculated into a 48-well plate and the cell density was adjusted to 1.0×10^5 cells/well. After cultured for 24 h, the cells were stably adhered to the plate. The original medium was removed and different concentrations (5, 10, 20, 40 μM) of Tan were added to allow pretreatment for 1 h. […] OD540 nm value of the cell supernatant was detected according to the instructions of a Griess kit, and the NO content in the cell supernatant was calculated.

[8] = system: IMQ-induced psoriasis mice; assay: H&E histological evaluation of dorsal skin of IMQ-induced psoriasis mice; format: in vivo, Balb/c mice; settings: dose-dependent
Experimental: as §1

SMILES: COc1ccc(-c2cc(=O)c3c(OC)c(OC)c(OC)c(OC)c3o2)cc1 [Tan, tangeretin]
- proliferation of endothelial cells / angiogenesis [1]: inhibit the proliferation of endothelial cells
- expression level of PCNA in the dorsal skin [2]: significantly reduced
- toxicity to RAW264.7 cells (cell viability) ([3]; 0-40 μM, P>0.05): did not produce significant toxicity
- cell viability of RAW264.7 cells ([3]; Tan concentration higher than 40 μM, P<0.05): decreased
- expression level of p-STAT3 in the dorsal skin [4]: significantly reduced
- improvement of dorsal skin lesions compared with positive control Clo ([5]; high-dose (640 μg/cm^2) preventive and therapeutic groups): comparable to that of the positive control Clo
- erythema and scaling of dorsal skin ([5]; preventive and therapeutic topical administration, 40/160/640 μg/cm^2, vs IMQ group, dose-dependent): significant reduction in erythema and scaling
- scales and erythema on the dorsal skin ([5]; preventive group (from first day of modeling)): almost disappeared
- back scales after treatment ([5]; therapeutic group (from 3rd day of modeling)): only a minimal amount of back scales remained
- expression level of IL-17A in the dorsal skin [6]: significantly reduced
- inhibitory effect on NO compared with positive control Clo ([7]; 40 μM, 24 h): comparable to that of the positive control
- NO content in the cell supernatant ([7]; 5-40 μM, 24 h, vs LPS group, P<0.001, dose-dependent): significantly reduced
- inhibitory effect on the production of NO ([7]; 48 h): strong inhibitory effect
- H&E histology of dorsal skin (epidermal thickness, hyperkeratosis, inflammatory infiltration) ([8]; preventive Tan group vs IMQ group): reduced epidermal tissue thickness, reduced hyperkeratosis, and slight inflammatory cellular infiltration
- H&E histology of dorsal skin (epidermal thickness, hyperkeratosis, inflammatory infiltration) ([8]; therapeutic Tan group, especially high-dose, vs IMQ group): reduced epidermal tissue thickness, reduced hyperkeratosis, and slight inflammatory cellular infiltration
